From patent EP0466251A1, “Elfamycin-resistant mutants” (priority 1990, dated 1992)

How the values were obtained:
Assay type in all cases: cell-based
[1] = system: S. ramocissimus CBS 190.69; experiment: germination and growth of spores in liquid YMG medium; details: 5.10⁷ spores/ml, 25 ml YMG medium, shake flasks, 5 days at 30°C
Experimental: (§1) Spores, mycelium, and protoplasts of strain S. ramocissimus R1V were examined with respect to the minimal inhibitory concentration of mocimycin on their growth properties.
(§2) Spores of strain S. ramocissimus R1V and the control S. ramocissimus CBS 190.69 were inoculated at 5.10⁷ spores/ml in parallel shake flasks containing 25 ml YMG medium and mocimycin at concentrations ranging from 0 to 1 g/l. Incubation was for 5 days at 30°C. For the control strain 0.15 g/l mocimycin inhibited germination (and/or growth) of the spores, whereas spores of S. ramocissimus strain R1V still germinated and grew at mocimycin concentrations up to 0.75 g/l.

S. ramocissimus R1V [2] = experiment: as above; details: 5.10⁷ spores/ml, 25 ml YMG medium, shake flasks, 5 days at 30°C
Experimental: as §1, §2

[3] = system: S. ramocissimus CBS 190.69; experiment: regeneration of protoplasts on regeneration medium; details: for Regeneration efficiency of protoplasts: regeneration medium
Experimental: (§3) Spores were isolated essentially as described by D. Hopwood et al. (cited above), and used to inoculate YMG medium (yeast extract 4 g/l, malt extract 10 g/l, glucose 4 g/l) containing 0.5% glycine. Protoplasts were obtained by lysozyme treatment of this culture, transformed as described by D. Hopwood et al. (cited above) with plasmid pMTST1VΔS and pMTST1TΔS. Subsequently the transformed protoplasts were spread on regeneration medium, and incubated at 30°C. Regeneration medium was prepared by mixing equal volumes of sporulation medium and stabilizer medium. Stabilizer medium consisted of NaNO₃ 3 g/l, K₂HPO₄.3H₂O 0.085 g/l, K₂SO₄ 0.25 g/l, FeSO₄.7H₂O 0.01 g/l, trace element solution 0.1 ml, Tris 3.03 g/l, NaCl 2.92 g/l, sucrose 103 g/l, glucose 10 g/l, MgCl₂.6H₂O 5 g/l, CaCl₂.2H₂O 1.5 g/l, and agar 20 g/l, adjusted to pH 7.2 with 4N HCl. […] After 24 hrs the regeneration plates were overlaid with 3 ml soft agar containing 20 µg/ml thiostrepton (D. Hopwood et al., cited above) and incubated at 30°C for 5 days.
(§4) Another test was carried out using protoplasts of strains S. ramocissimus CBS 190.69 and S. ramocissimus R1V, prepared as described in Example 7. […] Thus protoplasts were plated on regeneration medium (Example 7) containing 0 to 0.1 g/l mocimycin. Under these conditions protoplasts of S. ramocissimu CBS 190.69 were able to regenerate only at mocimycin concentrations below 0.02 g/l; regeneration of S. ramocissimus R1V protoplasts in the presence of up to 0.1 g/l mocimycin occurred with the same efficiency as without mocimycin (Table 2).

S. ramocissimus R1V [4] = experiment: regeneration of protoplasts on regeneration medium; details: for Regeneration efficiency of protoplasts: regeneration medium
Experimental: as §3, §4

[5] = regeneration medium containing 0 to 0.1 g/l mocimycin

C/C=C\C=C\[C@@H]1O[C@](O)([C@H](CC)C(=O)NC/C=C/C=C(\C)[C@@H](OC)[C@H](C)[C@@H]2O[C@H](/C=C/C=C/C=C(\C)C(=O)c3c(O)cc[nH]c3=O)[C@H](O)[C@@H]2O)[C@H](O)[C@H](O)C1(C)C [mocimycin, Mocimycin]
mocimycin concentration that inhibited germination (and/or growth) of the spores [1]: 0.15 g/L
mocimycin concentrations at which spores still germinated and grew (S. ramocissimus R1V [2]): up to 0.75 g/l
mocimycin concentrations at which protoplasts were able to regenerate [3, 5]: below 0.02 g/l
Regeneration efficiency of protoplasts ([3]; mocimycin 0.01 g/l): 40%
Regeneration efficiency of protoplasts ([3]; mocimycin 0.02 g/l): 0%
Regeneration efficiency of protoplasts ([3]; mocimycin 0.04 g/l): 0%
Regeneration efficiency of protoplasts ([3]; mocimycin 0.07 g/l): 0%
Regeneration efficiency of protoplasts ([3]; mocimycin 0.10 g/l): 0%
mocimycin concentration up to which regeneration occurred with the same efficiency as without mocimycin (S. ramocissimus R1V [4]; [5]): up to 0.1 g/l
Regeneration efficiency of protoplasts (S. ramocissimus R1V [4]; mocimycin 0.01 g/l): 100%
Regeneration efficiency of protoplasts (S. ramocissimus R1V [4]; mocimycin 0.02 g/l): 100%
Regeneration efficiency of protoplasts (S. ramocissimus R1V [4]; mocimycin 0.04 g/l): 100%
Regeneration efficiency of protoplasts (S. ramocissimus R1V [4]; mocimycin 0.07 g/l): 90%
Regeneration efficiency of protoplasts (S. ramocissimus R1V [4]; mocimycin 0.10 g/l): 80%
